Assay results from publication PMC9027599, “Secondary Metabolites in Basil, Bio-Insecticide, Inhibition Effect, and In Silico Molecular Docking against Proteolytic Enzymes of the Red Palm Weevil (Rhynchophorus ferrugineus)” (Plants, 2022).
In brackets after ≈: the same amount, converted by molar mass.

Legend:
[1] = tested on: R. ferrugineus adults; assay: whole plant or invertebrate; settings: Rhynchophorus ferrugineus
Method: (§1) The R. ferrugineus adult and larvae were acquired from an insect breeding lab at King Faisal University’s Date Palm Research Center of Excellence and grown utilizing sugarcane stem long pieces. The extracts activity against larvae was determined by using topical application method with storing larvae at 4–5 °C for 5 min. Previous serial concentrations of extract (10 µL) were applied to the dorsum of each larvae using a hand-operated micro-applicator (Burkard Manufacturing Co., Ltd., Hertfordshire, UK with a 50-ll micro-syringe (MS-N50; Ito Corp., Shizuoka, Japan). Each larva was feeding on 10 cm stem pieces of long sugarcane, with 5 larvae/box with three replicates. After topical administration, larval mortality was determined after 24, 48, 72, and 96 h to determine the LD50. Adults were tested for antifeedant effect determined using ten-centimeter-long sections of sugarcane stem divided into equal longitudinal halves. Pieces of long sections of sugarcane stem with area ~32.2 cm^2 were dipped for ten seconds in the previous serial concentration of extract (10 mL) and, then, dried in room temperature air. […] Each package received a replacement pair (male and female). Each treatment was replicated ten times. After 24, 48, 72, and 96 h, feeding observations were assayed.
(§2) Finney states that the statistical analysis and probit analysis were conducted using the SPSS 25.0 program (Statistical Package for Social Sciences, Armonk, NY, USA). Chemical components were determined by PCA using SPSS 25.0 program and presented using XLSTAT 2018.1. PCA is a clustering technique that is used to determine the relationships between samples. […] We did a mortality against dosage regression and converted the resultant median dose to an LC50 value (µg/mL). The range of LC50 was calculated with a 95 percent confidence interval using least-squares. We conducted a one-way analysis of variance on the enzyme activity data (ANOVA). The Student–Newman–Keuls (SNK) test was applied with separate means, and differences at p ≤ 0.05 were considered significant.

[2] = tested on: total proteases; assay: Total protease activity of midgut from larvae treated 24 h (in vivo); parameters: species or system Rhynchophorus ferrugineus; settings: midgut of fourth instar larvae treated for 24 h
Method: The Lowry technique was used to determine the protein concentrations. Total proteolytic activity was determined in the fourth midgut instar larval (lab strain) homogenate of R. ferrugineus with azocasein in accordance with […] et al. […] [70]. […] Using a Sigma 3k30 cooling centrifuge, reserve homogenates prepared in a previous stage were spun at 5000 rpm for 30 min. Estimates of protein content and total proteolytic enzyme activity were made using the supernatants. The supernatant (10 μL) was incubated at 37 °C for 20 min, and the volume was adjusted to 60 μL using an assay buffer (pH 8), before adding azocasien (200 μL, 2% (w/v)). […] Following that, to activate the reaction, the substrate was introduced 20 min for Leupeptin, so the reaction was halted after 180 min at 37 °C with 300 μL of cool tri-chloroacetic acid (TCA) (10% (v/v). The mixture was centrifuged for 20 min at 5000 rpm (Sigma 3k30 cooling centrifuge). […] To learn more about the proteases found in homogenate preparations of R. ferrugineus fourth midgut larval instars, inhibitors from many different types of mechanisms were used. […] As a control, an assay combination devoid of inhibitors was utilized. The absorbance of the enzymes was determined using an ELISA plate quick reader at various wavelengths. The percentage activity of the control enzyme for each inhibitor was evaluated for each enzyme. […] Larvae were exposed for 24 h to leaf discs treated with extract and compounds.

[3] = tested on: trypsin-like serine proteinase; assay: Trypsin-like activity of midgut from larvae treated 24 h (in vivo); parameters: species or system Rhynchophorus ferrugineus; settings: midgut of fourth instar larvae treated for 24 h
Method: (§3) The midguts were homogenized in the assay buffer (100 mM Tris-HCl, pH 8.1) and centrifuged for 30 min at 8000 rpm (Sigma 3K 30, rotors No. 12158). […] […] (100 mg/mL in DMF), BAρNA (100 mg/mL in DMSO), and […] (100 mg/mL in DMF) stock substrates were diluted in the assay buffer to 1 mg/mL, and substrate volume was 50 μL. […] The activity was quantified using an ELISA plate reader at a wavelength of 405 nm. As an empty well, an assay combination containing a denaturation enzyme was utilized instead of an active enzyme. […] To learn more about the proteases found in homogenate preparations of R. ferrugineus fourth midgut larval instars, inhibitors from many different types of mechanisms were used. […] As a control, an assay combination devoid of inhibitors was utilized. The absorbance of the enzymes was determined using an ELISA plate quick reader at various wavelengths. The percentage activity of the control enzyme for each inhibitor was evaluated for each enzyme. […] Larvae were exposed for 24 h to leaf discs treated with extract and compounds.

[4] = tested on: R. ferrugineus fourth larvae; assay: Topical application (contact insecticide) on larvae; format: in vivo, Rhynchophorus ferrugineus; settings: 4th larvae, probit analysis, 95% confidence limits in brackets
Method: as §1, §2

[5] = biological target: trypsin-like serine proteinase; assay: Serine proteinase microplate assay, BApNA (in vitro); format: biochemical, Rhynchophorus ferrugineus; settings: fourth instar larvae midgut homogenate
Method: as §3, with “The specific activities of serine proteinase were determined using a rapid quick microplate assay with substrates in reaction mixtures (150 μL) including a serine protease assay buffer, according to […] et al. and Olga et al. with modifications. The midguts” for “The midguts”

[6] = biological target: elastase; assay: Serine proteinase microplate assay, SAAPLpNA (in vitro); format: biochemical, Rhynchophorus ferrugineus; settings: fourth instar larvae midgut homogenate
Method: as §3, with “The specific activities of serine proteinase were determined using a rapid quick microplate assay with substrates in reaction mixtures (150 μL) including a serine protease assay buffer, according to […] et al. and Olga et al. with modifications. The midguts” for “The midguts”

[7] = tested on: elastase; assay: Elastase activity of midgut from larvae treated 24 h (in vivo); parameters: species or system Rhynchophorus ferrugineus; settings: midgut of fourth instar larvae treated for 24 h
Method: as §3

O=C(O)C[C@H](C(=O)O)[C@@H](O)C(=O)O [Isocitric acid]
LC50 [1]: 1830 µg/mL (≈ 9.5 mM) | IC50 against total proteases (in vivo) [2]: 486.3 µg/mL | IC50 against trypsin-like serine proteinase (in vivo) [3]: 314.8 µg/mL | LD50 [4]: 23.9 (21.1–24.6) µg/Larvae

O=C(/C=C/c1ccc(O)c(O)c1)O/C=C\c1ccc(O)c(O)c1 [Nepetoidin B]
LC50 [1]: 1320 µg/mL (≈ 4.19 mM) | IC50 against total proteases (in vivo) [2]: 179.4 µg/mL | IC50 against trypsin-like serine proteinase (in vivo) [3]: 102.7 µg/mL | LD50 [4]: 11.9 (11.1–12.3) µg/Larvae | IC50 against trypsin-like serine proteinase (in vitro) [5]: 86.7 µg/mL

C[C@@H]1O[C@@H](OC[C@H]2O[C@@H](Oc3c(-c4ccc(O)c(O)c4)oc4cc(O)cc(O)c4c3=O)[C@H](O)[C@@H](O)[C@@H]2O)[C@H](O)[C@H](O)[C@H]1O [Quercetin-3-O-rutinoside]
LC50 [1]: 1210 µg/mL (≈ 1.99 mM) | IC50 against total proteases (in vivo) [2]: 286.4 µg/mL | IC50 against trypsin-like serine proteinase (in vivo) [3]: 325.5 µg/mL | LD50 [4]: 16.9 (15.1–17.6) µg/Larvae | IC50 against trypsin-like serine proteinase (in vitro) [5]: 104.5 µg/mL

O=C(/C=C/c1ccc(O)c(O)c1)O[C@H](Cc1ccc(O)c(O)c1)C(=O)O [Rosmarinic acid]
LC50 [1]: 1500 µg/mL (≈ 4.15 mM) | IC50 against total proteases (in vivo) [2]: 186.2 µg/mL | IC50 against trypsin-like serine proteinase (in vivo) [3]: 174.6 µg/mL | LD50 [4]: 12.4 (11.8–12.7) µg/Larvae | IC50 against elastase (in vitro) [6]: 96.4 µg/mL | IC50 against elastase (in vivo) [7]: 119.7 µg/mL | IC50 against trypsin-like serine proteinase (in vitro) [5]: 91.3 µg/mL

COc1ccc(-c2cc(=O)c3c(O)c(OC)c(OC)cc3o2)cc1 [Salvigenin, 5-Hydroxy-6,7,4′-trimethoxyflavone]
LC50 [1]: 1190 µg/mL (≈ 3.62 mM) | IC50 against total proteases (in vivo) [2]: 164.8 µg/mL | IC50 against trypsin-like serine proteinase (in vivo) [3]: 241.2 µg/mL | LD50 [4]: 11.4 (10.4–11.8) µg/Larvae | IC50 against elastase (in vitro) [6]: 105.6 µg/mL | IC50 against elastase (in vivo) [7]: 138.2 µg/mL | IC50 against trypsin-like serine proteinase (in vitro) [5]: 59.2 µg/mL

dicaffeoyl-tartaric acid [Chicoric acid]
IC50 against total proteases (in vivo) [2]: 146.2 µg/mL | IC50 against trypsin-like serine proteinase (in vivo) [3]: 75.1 µg/mL | LD50 [4]: 10.23 (9.87–10.94) µg/Larvae | IC50 against trypsin-like serine proteinase (in vitro) [5]: 51.6 µg/mL
